{"source": "the supplement of paper PMC11208160", "data": [{"assay": "recombinant barcode read abundance after kanamycin selection (control-corrected) (log10(CPM+1)); higher = more efficient recombination; sequences stand for … in AGTGCAGAGAAAATCGGCCAGTTTTCTCTGCCTGCAGTCCGCATGCCGT…AGATTTATGCAGCGGACTGCCTTTCTCCCAAAGTGATAAACCGGACAGTATCATGGACCGGTTTTCCCGGTAATCCGTATTTGCAAGGTTGGTTTCACT; site = the 11-nt target", "procedure": "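Pooled E. coli target-specificity screen for the IS621 bridge recombinase. Each library plasmid pairs an 11-nt target (CT core) with a bridge RNA whose target-binding loop (9-nt LTG + 4-nt RTG) is reprogrammed; the rest of the 177-nt WT IS621 bridge RNA scaffold is fixed. The plasmid is co-electroporated with a WT donor plasmid; recombinase is induced with 0.1 mM IPTG and recombinants are selected on kanamycin. Recombinant barcodes are sequenced, converted to CPM, averaged over two biological replicates and corrected by the unselected control CPM. Molecule = full bridge RNA written as DNA: LTG = specificity nt 1-9, RTG = reverse complement of specificity nt 8-11, in the WT scaffold.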", "values": [{"sequence": "ACACATACTTGGGTTCTAACCTGTTGCCT (site ACACATACTAG)", "recombinant barcode read abundance (log10)": 0.302}, {"sequence": "ACACATACTTGGGTTCTAACCTGTTGCCT (site ACGCATACTAG)", "recombinant barcode read abundance (log10)": 0.104}, {"sequence": "ACACCCTCTTGGGTTCTAACCTGTTGCAG (site ACACCCTCTCT)", "recombinant barcode read abundance (log10)": 1.79}, {"sequence": "ACACCCTCTTGGGTTCTAACCTGTTGCAG (site GGTATAACTTG)", "recombinant barcode read abundance (log10)": 0.271}, {"sequence": "ACACCGTCTTGGGTTCTAACCTGTTGCCT (site ACACCGTCTAG)", "recombinant barcode read abundance (log10)": 2.12}, {"sequence": "ACACCGTCTTGGGTTCTAACCTGTTGCCT (site AGACCTTCTAG)", "recombinant barcode read abundance (log10)": 0}, {"sequence": "ACACGACCTTGGGTTCTAACCTGTTGCGG (site ACACGACCTCC)", "recombinant barcode read abundance (log10)": 2.48}, {"sequence": "ACACGACCTTGGGTTCTAACCTGTTGCGG (site ACAGGAGCTCC)", "recombinant barcode read abundance (log10)": 0}, {"sequence": "ACAGAGACTTGGGTTCTAACCTGTTGCAG (site ACAGAGACTCT)", "recombinant barcode read abundance (log10)": 1.35}, {"sequence": "ACAGAGACTTGGGTTCTAACCTGTTGCAG (site ACGTAGACTCT)", "recombinant barcode read abundance (log10)": 0.113}, {"sequence": "ACAGCTACTTGGGTTCTAACCTGTTGCCT (site ACAGCTACTAG)", "recombinant barcode read abundance (log10)": 1.84}, {"sequence": "ACAGCTACTTGGGTTCTAACCTGTTGCCT (site ACAGCTTCTAG)", "recombinant barcode read abundance (log10)": 0.33}, {"sequence": "ACAGCTACTTGGGTTCTAACCTGTTGCTT (site ACAGCTACTAA)", "recombinant barcode read abundance (log10)": 0.699}, {"sequence": "ACAGCTACTTGGGTTCTAACCTGTTGCTT (site GCAGCTACTCA)", "recombinant barcode read abundance (log10)": 0.0436}, {"sequence": "ACAGGGTCTTGGGTTCTAACCTGTTGCCT (site AAAGGGTCTAG)", "recombinant barcode read abundance (log10)": 0}, {"sequence": "ACAGGGTCTTGGGTTCTAACCTGTTGCCT (site ACAGGGTCTAG)", "recombinant barcode read abundance (log10)": 2.32}, {"sequence": "ACAGGGTCTTGGGTTCTAACCTGTTGCCT (site AGAGGGTCTAG)", "recombinant barcode read abundance (log10)": 0.193}, {"sequence": "ACAGGGTCTTGGGTTCTAACCTGTTGCCT (site ATAGGGTCTAG)", "recombinant barcode read abundance (log10)": 0.355}, {"sequence": "ACAGGTCCTTGGGTTCTAACCTGTTGCCG (site ACAGGTCCTCG)", "recombinant barcode read abundance (log10)": 2.34}, {"sequence": "ACAGGTCCTTGGGTTCTAACCTGTTGCCG (site GTCTAATCTAT)", "recombinant barcode read abundance (log10)": 0.12}, {"sequence": "ACAGTACCTTGGGTTCTAACCTGTTGCTG (site ACAGTACCTCA)", "recombinant barcode read abundance (log10)": 1.87}, {"sequence": "ACAGTACCTTGGGTTCTAACCTGTTGCTG (site TAGCCCTCTTT)", "recombinant barcode read abundance (log10)": 0.204}, {"sequence": "ACAGTTACTTGGGTTCTAACCTGTTGCAT (site ACAGTTACTAT)", "recombinant barcode read abundance (log10)": 1.29}, {"sequence": "ACAGTTACTTGGGTTCTAACCTGTTGCAT (site TTGTGAGCTTG)", "recombinant barcode read abundance (log10)": 0.737}, {"sequence": "ACATACCCTTGGGTTCTAACCTGTTGCTG (site ACATACCCTCA)", "recombinant barcode read abundance (log10)": 1.81}, {"sequence": "ACATACCCTTGGGTTCTAACCTGTTGCTG (site CTTCGAACTAT)", "recombinant barcode read abundance (log10)": 0.142}, {"sequence": "ACATGGACTTGGGTTCTAACCTGTTGCAT (site ACATGAACTAT)", "recombinant barcode read abundance (log10)": 0.753}, {"sequence": "ACATGGACTTGGGTTCTAACCTGTTGCAT (site ACATGCACTAT)", "recombinant barcode read abundance (log10)": 0.115}, {"sequence": "ACATGGACTTGGGTTCTAACCTGTTGCAT (site ACATGGACTAT)", "recombinant barcode read abundance (log10)": 2.72}, {"sequence": "ACATGGACTTGGGTTCTAACCTGTTGCAT (site ACATGTACTAT)", "recombinant barcode read abundance (log10)": 0.157}, {"sequence": "ACATGTACTTGGGTTCTAACCTGTTGCAG (site ACATGTACTCT)", "recombinant barcode read abundance (log10)": 1.28}, {"sequence": "ACATGTACTTGGGTTCTAACCTGTTGCAG (site AGATGTACTCA)", "recombinant barcode read abundance (log10)": 0.0852}, {"sequence": "ACATGTACTTGGGTTCTAACCTGTTGCAT (site ACATGAACTAT)", "recombinant barcode read abundance (log10)": 0.0356}, {"sequence": "ACATGTACTTGGGTTCTAACCTGTTGCAT (site ACATGCACTAT)", "recombinant barcode read abundance (log10)": 0}, {"sequence": "ACATGTACTTGGGTTCTAACCTGTTGCAT (site ACATGGACTAT)", "recombinant barcode read abundance (log10)": 0.121}, {"sequence": "ACATGTACTTGGGTTCTAACCTGTTGCAT (site ACATGTACTAT)", "recombinant barcode read abundance (log10)": 0.888}, {"sequence": "ACATGTACTTGGGTTCTAACCTGTTGCCG (site ACATGTACTCA)", "recombinant barcode read abundance (log10)": 0.0415}, {"sequence": "ACATGTACTTGGGTTCTAACCTGTTGCCG (site ACATGTACTCG)", "recombinant barcode read abundance (log10)": 0.158}, {"sequence": "ACATGTACTTGGGTTCTAACCTGTTGCTG (site ACATGTACTCA)", "recombinant barcode read abundance (log10)": 1.1}, {"sequence": "ACATGTACTTGGGTTCTAACCTGTTGCTG (site ACATGTACTCG)", "recombinant barcode read abundance (log10)": 0.182}, {"sequence": "ACATTGCCTTGGGTTCTAACCTGTTGCCT (site ACATTGCCTAG)", "recombinant barcode read abundance (log10)": 0.44}, {"sequence": "ACATTGCCTTGGGTTCTAACCTGTTGCCT (site ACCTTGCCTAG)", "recombinant barcode read abundance (log10)": 0.0938}, {"sequence": "ACATTGCCTTGGGTTCTAACCTGTTGCCT (site ACGTTGCCTAG)", "recombinant barcode read abundance (log10)": 0.732}, {"sequence": "ACATTGCCTTGGGTTCTAACCTGTTGCCT (site ACTTTGCCTAG)", "recombinant barcode read abundance (log10)": 0}, {"sequence": "ACCAAGTCTTGGGTTCTAACCTGTTGCGC (site ACCAAGTCTAC)", "recombinant barcode read abundance (log10)": 0.251}, {"sequence": "ACCAAGTCTTGGGTTCTAACCTGTTGCGC (site ACCAAGTCTGC)", "recombinant barcode read abundance (log10)": 1.74}, {"sequence": "ACCACAGCTTGGGTTCTAACCTGTTGCCT (site ACCAAAGCTTG)", "recombinant barcode read abundance (log10)": 0.16}, {"sequence": "ACCACAGCTTGGGTTCTAACCTGTTGCCT (site ACCACAGCTAG)", "recombinant barcode read abundance (log10)": 0.283}, {"sequence": "ACCAGATCTTGGGTTCTAACCTGTTGCCT (site ACCAGATCTAG)", "recombinant barcode read abundance (log10)": 0.846}, {"sequence": "ACCAGATCTTGGGTTCTAACCTGTTGCCT (site TCCAGCTCTAG)", "recombinant barcode read abundance (log10)": 0.152}, {"sequence": "ACCCAGCCTTGGGTTCTAACCTGTTGCAG (site ACCCAGCCTCT)", "recombinant barcode read abundance (log10)": 2.27}, {"sequence": "ACCCAGCCTTGGGTTCTAACCTGTTGCAG (site TGAGTCTCTTG)", "recombinant barcode read abundance (log10)": 0.0203}, {"sequence": "ACCCAGCCTTGGGTTCTAACCTGTTGCAT (site ACCCAGCCTAA)", "recombinant barcode read abundance (log10)": 1.4}, {"sequence": "ACCCAGCCTTGGGTTCTAACCTGTTGCAT (site ACCCAGCCTAC)", "recombinant barcode read abundance (log10)": 0.265}, {"sequence": "ACCCAGCCTTGGGTTCTAACCTGTTGCAT (site ACCCAGCCTAG)", "recombinant barcode read abundance (log10)": 0.68}, {"sequence": "ACCCAGCCTTGGGTTCTAACCTGTTGCAT (site ACCCAGCCTAT)", "recombinant barcode read abundance (log10)": 2.45}, {"sequence": "ACCCAGCCTTGGGTTCTAACCTGTTGCTT (site ACCCAGCCTAA)", "recombinant barcode read abundance (log10)": 1.77}, {"sequence": "ACCCAGCCTTGGGTTCTAACCTGTTGCTT (site ACCCAGCCTAC)", "recombinant barcode read abundance (log10)": 0.278}, {"sequence": "ACCCAGCCTTGGGTTCTAACCTGTTGCTT (site ACCCAGCCTAG)", "recombinant barcode read abundance (log10)": 0.758}, {"sequence": "ACCCAGCCTTGGGTTCTAACCTGTTGCTT (site ACCCAGCCTAT)", "recombinant barcode read abundance (log10)": 1.41}, {"sequence": "ACCCGTACTTGGGTTCTAACCTGTTGCCT (site ACCAGTACTAG)", "recombinant barcode read abundance (log10)": 0.063}, {"sequence": "ACCCGTACTTGGGTTCTAACCTGTTGCCT (site ACCCGTACTAG)", "recombinant barcode read abundance (log10)": 1.26}, {"sequence": "ACCCGTACTTGGGTTCTAACCTGTTGCCT (site ACCGGTACTAG)", "recombinant barcode read abundance (log10)": 0.0386}, {"sequence": "ACCCGTACTTGGGTTCTAACCTGTTGCCT (site ACCTGTACTAG)", "recombinant barcode read abundance (log10)": 0.485}, {"sequence": "ACCCGTCCTTGGGTTCTAACCTGTTGCAG (site ACCCGTCCTCT)", "recombinant barcode read abundance (log10)": 2.67}, {"sequence": "ACCCGTCCTTGGGTTCTAACCTGTTGCAG (site GGCCGTCCTCT)", "recombinant barcode read abundance (log10)": 0.051}, {"sequence": "ACCCTAGCTTGGGTTCTAACCTGTTGCCA (site ACCCTAGCTTG)", "recombinant barcode read abundance (log10)": 1.52}, {"sequence": "ACCCTAGCTTGGGTTCTAACCTGTTGCCA (site ATCGTAGCTTG)", "recombinant barcode read abundance (log10)": 0.0661}, {"sequence": "ACCCTAGCTTGGGTTCTAACCTGTTGCTC (site AACCTAGCTTA)", "recombinant barcode read abundance (log10)": 0.191}, {"sequence": "ACCCTAGCTTGGGTTCTAACCTGTTGCTC (site ACCCTAGCTGA)", "recombinant barcode read abundance (log10)": 1.95}, {"sequence": "ACCCTATCTTGGGTTCTAACCTGTTGCTT (site ACCCTATCTAA)", "recombinant barcode read abundance (log10)": 0.944}, {"sequence": "ACCCTATCTTGGGTTCTAACCTGTTGCTT (site ACTCTGTCTAA)", "recombinant barcode read abundance (log10)": 0.114}, {"sequence": "ACCGACCCTTGGGTTCTAACCTGTTGCAT (site ACCGACCCTAT)", "recombinant barcode read abundance (log10)": 1.67}, {"sequence": "ACCGACCCTTGGGTTCTAACCTGTTGCAT (site TAGTTTGCTCG)", "recombinant barcode read abundance (log10)": 0.401}, {"sequence": "ACCGCGTCTTGGGTTCTAACCTGTTGCAT (site ACCGCGTCTAT)", "recombinant barcode read abundance (log10)": 0.521}, {"sequence": "ACCGCGTCTTGGGTTCTAACCTGTTGCAT (site TTGATAGCTTA)", "recombinant barcode read abundance (log10)": 0.0509}, {"sequence": "ACCGCTCCTTGGGTTCTAACCTGTTGCCT (site AACGCTCCTAG)", "recombinant barcode read abundance (log10)": 0.0208}, {"sequence": "ACCGCTCCTTGGGTTCTAACCTGTTGCCT (site ACCGCTCCTAG)", "recombinant barcode read abundance (log10)": 0.297}, {"sequence": "ACCGCTCCTTGGGTTCTAACCTGTTGCCT (site AGCGCTCCTAG)", "recombinant barcode read abundance (log10)": 0.0225}, {"sequence": "ACCGCTCCTTGGGTTCTAACCTGTTGCCT (site ATCGCTCCTAG)", "recombinant barcode read abundance (log10)": 0.0271}, {"sequence": "ACCTACCCTTGGGTTCTAACCTGTTGCCT (site ACATACACTAG)", "recombinant barcode read abundance (log10)": 0.136}, {"sequence": "ACCTACCCTTGGGTTCTAACCTGTTGCCT (site ACCTACCCTAG)", "recombinant barcode read abundance (log10)": 1.14}]}]}
